Structures can show the parent of a compound that is named as a salt.

The conditions of data set [1]: Ca^2+ compared with Sr^2+; cited from earlier work.
For data set [2] the following is noted: with increasing atomic number (decreasing ionic size); cited from earlier work.
The nature of the next data set: Water solubility. In kind it is physicochemical. The note with it: product of Example 1.
Data set [3] can be described thus: Lethal dose determination, intravenous, mortality within 30 days. The conditions noted are these: in vivo, DMCRYP salt×NaBr (x=2.5-8) as prepared according to Example I. Here is the method:
Healing power of the composition has been evidenced by animal tests. In this way, the minimum and average lethal doses (LD0.1 and LD50, respectively) have been established.
For the determination of lethal doses, the active ingredient was administered intravenously at increasing concentrations to the animals. Minimum and average lethal doses were calculated from the mortality within 30 days. […] On every occasion, one tenth of this dose was introduced into each animal in this experiment.

A further data set is described as follows: Hygroscopicity. It counts as physicochemical. The note with it: sodium salt versus lithium salt.
Data set [4] in a line: Whole-body retention of Sr-85 introduced into the peritoneal cavity, female Wistar rats (FIG. 2, Example 2). It counts as in vivo. The conditions noted are these: equimolar concentration. The source says:
(§1) In order to test the effect of DMCRYP on enhancing the decorporation of radiostroncium and the rare earth metal radiocerium from the body, male and female Swiss mice and Wistar rats were selected. […] In the comparative tests, a known polyaminopolycarboxylic acid-type decorporant (decorporating agent), calcium-trisodium salt of DTPA (diethylenetriaminopentacetic acid) (Heyl and Co., Berlin) was used at equimolar concentration. The amount of residual isotopes in the animal organisms was determined by whole-body activity measurements in every 1 to 4 days and was expressed as per cent of activity introduced.

Data set [5] is described as follows: Whole-body retention of cerium-144 introduced peritoneally (FIG. 6, Example 6). It counts as in vivo. The note with it: female Swiss mice.
Excerpt: as §1
Treatments were repeated twice, on the Days 2 and 4.

Data set [6] is described as follows: Whole-body retention of Sr-85 introduced into the peritoneal cavity, mice (FIG. 1). In kind it is in vivo, Swiss mice. The note with it: equimolar concentration, isotope in peritoneal cavity.
Excerpt: as §1

Data set [7] in a line: Whole-body retention of radiostroncium in skin or subcutaneous interstitial tissues (FIG. 3, Example 3). The conditions noted are these: subcutaneous/skin isotope. It counts as in vivo.
Excerpt: as §1

As for `O=C(O)CN1CCOCCOCCN(CC(=O)O)CCOCCOCC1` [1,10-diaza-4,7,13,16-tetraoxacyclooctadecane-N,N'-diacetic acid], the “Relative stability of Ca^2+ and Sr^2+ complexes” value (from here on “Relative stability”) in data set [1] is recorded as “identical within the experimental error”. In data set [2], the “Stability constants of rare earth metal complexes, trend” value is reported as “decrease with the increasing atomic number”.

The term LD50 denotes the dose at which mortality reaches 50%. For `O=C(O)C(C(=O)O)N1CCOCCOCCN(C(C(=O)O)C(=O)O)CCOCCOCC1` [DMCRYP, 1,4,10,13-tetraoxa-7,16-diazacyclooctadecane-N,N'-dimalonic acid tetrasodium salt], the Water solubility result in “Water solubility” is on record as “very soluble”. The LD50 at 720 h in [3] worked out at 1050 µmol/kg. Moreover, the Hygroscopicity entry in “Hygroscopicity” (listed as sodium salt) was “not hygroscopic”.

Consider `O=C(O)CN(CCN(CC(=O)O)CC(=O)O)CCN(CC(=O)O)CC(=O)O` [DTPA, diethylenetriaminopentacetic acid], for which, in data set [1], the “Relative stability” value is reported as “considerably more stable with Ca^2+ than with Sr^2+”. For the same molecule, the “Retention values compared to control” value in [4] was “lower than those in the control but the difference was not statistically significant”. The “Whole-body retention of cerium-144” value in [5] (Day 2, after first treatment, 100 μmole/kg i.v. 30 minutes after isotope, control 85.9) stood at 72.8%. Also, in [5] (100 μmole/kg, Days 2 and 4), the “Effect of second and third treatments” value was “ineffective”. For the same molecule, the “Removal of Sr isotope from the animal body” value in [6] is recorded as “ineffective”. Also, in [7], the “Effect of treatment on whole-body retention” value was “ineffective”.

As to `O=C(O)CN(CCN(CC(=O)O)CC(=O)O)CC(=O)O` [EDTA, ethylenediaminetetraacetic acid], in [1], the “Relative stability” value is listed as “considerably more stable with Ca^2+ than with Sr^2+”.

For `O=C(O)C(C(=O)O)N1CCOCCOCCN(C(C(=O)O)C(=O)O)CCOCCOCC1` [lithium salt], the Hygroscopicity entry in “Hygroscopicity” is reported as “hygroscopic”.

Values taken from patent publication US5288718A, “Method for decorporating radioactive isotope from living organism” (priority 1989, dated 1994).
